How the values were obtained:
Mus musculus [1] = test: Effect on body temperature in mice at intraperitoneal dosage of 10 mg/kg, (compound administered 30 min before the test) after 30 min; assay type: functional
Rattus norvegicus [2] = test: Tested for the effect on 8-OH-DPAT-induced lower lip retraction (LLR) in rat at dosage of 10 mg/kg; assay type: functional
Mus musculus [3] = test: Effect on body temperature in mice at intraperitoneal dosage of 10 mg/kg, (compound administered 30 min before the test) after 45 min; assay type: functional
Mus musculus [4] = test: Effect on body temperature in mice at intraperitoneal dosage of 10 mg/kg, (compound administered 30 min before the test) after 60 min; assay type: functional
Mus musculus [5] = test: Effect on 8-OH-DPAT-induced hypothermia in mice (5 mg/kg) at intraperitoneal dosage of 10 mg/kg of compound after 30 mins; assay type: functional
Rattus norvegicus [6] = test: Tested for the induction of lower lip retraction (LLR) by the investigated compounds in rat at dosage of 10 mg/kg; assay type: functional
Mus musculus [7] = test: Effect on 8-OH-DPAT-induced hypothermia in mice (5 mg/kg) at intraperitoneal dosage of 10 mg/kg of compound after 15 mins; assay type: functional
Rattus norvegicus [8] = test: Tested for the effect on 8-OH-DPAT-induced behavior in reserpine pretreated rat against flat body posture at dosage of 10 mg/kg; assay type: functional
Mus musculus [9] = test: Effect on 8-OH-DPAT-induced hypothermia in mice (5 mg/kg) at intraperitoneal dosage of 10 mg/kg of compound after 60 mins; assay type: functional
Rattus norvegicus [10] = test: Tested for the effect on 8-OH-DPAT-induced behavior in reserpine pretreated rat against forepaw treading at dosage of 10 mg/kg; assay type: functional
Mus musculus [11] = test: Effect on 8-OH-DPAT-induced hypothermia in mice (5 mg/kg) at intraperitoneal dosage of 10 mg/kg of compound after 45 mins.; assay type: functional
Rattus norvegicus [12] = test: Tested for the effect on 8-OH-DPAT-induced behavior in reserpine pretreated rat against flat body posture at dosage of 4 mg/kg; assay type: functional
Rattus norvegicus [13] = test: Tested for the effect on 8-OH-DPAT-induced lower lip retraction (LLR) in rat at dosage of 16 mg/kg; assay type: functional
Rattus norvegicus [14] = test: Tested for the effect on 8-OH-DPAT-induced behavior in reserpine pretreated rat against forepaw treading at dosage of 4 mg/kg; assay type: functional
Rattus norvegicus [15] = test: Tested for the effect on 8-OH-DPAT-induced behavior in reserpine pretreated rat against forepaw treading at dosage of 8 mg/kg; assay type: functional
Mus musculus [16] = test: Effect on 8-OH-DPAT-induced hypothermia in mice (5 mg/kg) at intraperitoneal dosage of 16 mg/kg of compound after 30 mins; assay type: functional
Rattus norvegicus [17] = test: Tested for the effect on 8-OH-DPAT-induced behavior in reserpine pretreated rat against flat body posture at dosage of 8 mg/kg; assay type: functional
Rattus norvegicus [18] = test: Tested for the induction of lower lip retraction (LLR) by the investigated compounds in rat at dosage of 16 mg/kg; assay type: functional
Mus musculus [19] = test: Effect on 8-OH-DPAT-induced hypothermia in mice (5 mg/kg) at intraperitoneal dosage of 8 mg/kg of compound after 60 mins; assay type: functional
Mus musculus [20] = test: Effect on 8-OH-DPAT-induced hypothermia in mice (5 mg/kg) at intraperitoneal dosage of 4 mg/kg of compound after 45 mins. Values expressed as +/- SEM; assay type: functional
[21] = biological target: T1, 5-hydroxytryptamine receptor 1A (Rattus norvegicus, UniProt P19327); test: Tested in vitro for receptor binding affinity against 5-hydroxytryptamine 1A receptor using radioligand [3H]8-OH-DPAT
T1 sequence (P19327 whole entry): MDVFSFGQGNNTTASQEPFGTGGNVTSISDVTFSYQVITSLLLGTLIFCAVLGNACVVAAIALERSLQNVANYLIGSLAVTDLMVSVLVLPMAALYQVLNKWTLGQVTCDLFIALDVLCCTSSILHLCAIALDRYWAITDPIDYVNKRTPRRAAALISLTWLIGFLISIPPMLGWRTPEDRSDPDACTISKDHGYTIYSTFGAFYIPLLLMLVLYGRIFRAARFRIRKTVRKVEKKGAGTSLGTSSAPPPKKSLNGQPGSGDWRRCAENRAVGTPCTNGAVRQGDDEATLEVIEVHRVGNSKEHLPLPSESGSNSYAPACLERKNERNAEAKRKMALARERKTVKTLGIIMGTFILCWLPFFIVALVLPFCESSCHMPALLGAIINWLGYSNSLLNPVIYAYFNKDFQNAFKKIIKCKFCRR

Mus musculus [22] = test: Effect on 8-OH-DPAT-induced hypothermia in mice (5 mg/kg) at intraperitoneal dosage of 4 mg/kg of compound after 30 mins. Values expressed as +/- SEM; assay type: functional
Mus musculus [23] = test: Effect on 8-OH-DPAT-induced hypothermia in mice (5 mg/kg) at intraperitoneal dosage of 8 mg/kg of compound after 15 mins. Values expressed as +/- SEM; assay type: functional
Rattus norvegicus [24] = test: Tested for the effect on 8-OH-DPAT-induced lower lip retraction (LLR) in rat at dosage of 4 mg/kg; assay type: functional
Rattus norvegicus [25] = test: Tested for the effect on 8-OH-DPAT-induced lower lip retraction (LLR) in rat at dosage of 2 mg/kg; assay type: functional
[26] = biological target: Serotonin 2 (5-HT2) receptor (Rattus norvegicus, UniProt P30994+P08909+P14842); test: Tested in vitro for receptor binding affinity against 5-hydroxytryptamine 2 receptor using radioligand [3H]ketanserin; assay type: protein assay
Mus musculus [27] = test: Effect on 8-OH-DPAT-induced hypothermia in mice (5 mg/kg) at intraperitoneal dosage of 8 mg/kg of compound after 30 mins. Values expressed as +/- SEM; assay type: functional
Rattus norvegicus [28] = test: Tested for the effect on 8-OH-DPAT-induced lower lip retraction (LLR) in rat at dosage of 8 mg/kg; assay type: functional
Rattus norvegicus [29] = test: Tested for the induction of lower lip retraction (LLR) by the investigated compounds in rat at dosage of 8 mg/kg; assay type: functional
Mus musculus [30] = test: Effect on 8-OH-DPAT-induced hypothermia in mice (5 mg/kg) at intraperitoneal dosage of 4 mg/kg of compound after 15 mins. Values expressed as +/- SEM; assay type: functional
Mus musculus [31] = test: Effect on 8-OH-DPAT-induced hypothermia in mice (5 mg/kg) at intraperitoneal dosage of 8 mg/kg of compound after 45 mins. Values expressed as +/- SEM; assay type: functional
Rattus norvegicus [32] = species on record: Rattus norvegicus; test: Selectivity is the ratio between Ki values of 5-HT2 and 5-HT1A
Rattus norvegicus [33] = test: Tested for the induction of lower lip retraction (LLR) by the investigated compounds in rat at dosage of 4 mg/kg; assay type: functional
Rattus norvegicus [34] = test: Tested for the induction of lower lip retraction (LLR) by the investigated compounds in rat at dosage of 2 mg/kg; assay type: functional
Mus musculus [35] = test: Effect on 8-OH-DPAT-induced hypothermia in mice (5 mg/kg) at intraperitoneal dosage of 4 mg/kg of compound after 60 mins. Values expressed as +/- SEM; assay type: functional
Mus musculus [36] = test: Effect on 8-OH-DPAT-induced hypothermia in mice (5 mg/kg) at intraperitoneal dosage of 16 mg/kg of compound after 15 mins; assay type: functional
Rattus norvegicus [37] = test: Tested for the effect on 8-OH-DPAT-induced behavior in reserpine pretreated rat against flat body posture at dosage of 16 mg/kg; assay type: functional
Mus musculus [38] = test: Effect on 8-OH-DPAT-induced hypothermia in mice (5 mg/kg) at intraperitoneal dosage of 16 mg/kg of compound after 60 mins; assay type: functional
Rattus norvegicus [39] = test: Tested for the effect on 8-OH-DPAT-induced behavior in reserpine pretreated rat against forepaw treading at dosage of 16 mg/kg; assay type: functional
Mus musculus [40] = test: Effect on 8-OH-DPAT-induced hypothermia in mice (5 mg/kg) at intraperitoneal dosage of 16 mg/kg of compound after 45 mins; assay type: functional

Q: For `COc1ccccc1N1CCN(C[C@@H](C(=O)NC(C)(C)C)c2ccccc2)CC1`, which Delta t (Mus musculus [1]) is on record?
A: Its Delta t is 0.2 °C.

Q: And the LLR score (Rattus norvegicus [2])?
A: The LLR score was 0.8.

Q: And the Delta t (Mus musculus [3])?
A: Its Delta t is 0.2 °C.

Q: And the Delta t (Mus musculus [4])?
A: Its Delta t is 0.2 °C.

Q: And the Delta t (Mus musculus [5])?
A: The Delta t was 0 °C.

Q: And the LLR score (Rattus norvegicus [6])?
A: The LLR score was 0.1.

Q: And the Delta t (Mus musculus [7])?
A: The Delta t was 0.2 °C.

Q: What about the Behavioral score (Rattus norvegicus [8]) of the same compound?
A: Its Behavioral score is 9.7.

Q: And the Delta t (Mus musculus [9])?
A: The Delta t was 0.1 °C.

Q: And the Behavioral score (Rattus norvegicus [10])?
A: The Behavioral score was 1.

Q: And the Delta t (Mus musculus [11])?
A: Its Delta t is 0.3 °C.

Q: Which results are given for `COc1ccccc1N1CCN(CCCCn2nnc3ccccc32)CC1`?
A: Behavioral score (Rattus norvegicus [12]): 11; LLR score (Rattus norvegicus [13]): 2.4; Behavioral score (Rattus norvegicus [14]): 10.3; Behavioral score (Rattus norvegicus [15]): 3.6; Delta t (Mus musculus [16]): 5.6 °C; Behavioral score (Rattus norvegicus [17]): 8.2; LLR score (Rattus norvegicus [18]): 0.7; Delta t (Mus musculus [19]): 2.7 °C; Delta t (Mus musculus [20]): 3.8 °C; Ki [21]: 17 nM; Delta t (Mus musculus [22]): 4.2 °C; Delta t (Mus musculus [23]): 3.9 °C; LLR score (Rattus norvegicus [24]): 2.1; LLR score (Rattus norvegicus [25]): 2.2; Ki [26]: 160 nM; Delta t (Mus musculus [27]): 4.1 °C; LLR score (Rattus norvegicus [28]): 1.9; LLR score (Rattus norvegicus [29]): 0.1; Delta t (Mus musculus [30]): 3.9 °C; Delta t (Mus musculus [31]): 3.5 °C; Selectivity (Rattus norvegicus [32]): 9.4; LLR score (Rattus norvegicus [33]): 0.3; LLR score (Rattus norvegicus [34]): 0.2; Delta t (Mus musculus [35]): 3.2 °C; Delta t (Mus musculus [36]): 5.3 °C; Behavioral score (Rattus norvegicus [37]): 12.7; Delta t (Mus musculus [38]): 5.2 °C; Behavioral score (Rattus norvegicus [39]): 6.1; Delta t (Mus musculus [40]): 5.6 °C

Q: Which results are given for `CCN1CCN(c2ccccc2OC)CC1`?
A: Ki [21]: 203 nM; Ki [26]: 3120 nM; Selectivity (Rattus norvegicus [32]): 15

Q: Which Ki [21] does the source give for `COc1ccccc1N1CCN(CCn2nc3ccccc3n2)CC1` here?
A: Its Ki is 41 nM.

Q: What about the Ki [26] of the same compound?
A: The Ki was 1760 nM.

Q: And the Selectivity (Rattus norvegicus [32])?
A: The Selectivity was 43.
